US20260263429A1, “INHIBITORS OF CA 2+/CALMODULIN-DEPENDENT PROTEIN KINASE II (CAMKII) THAT DO NOT INHIBIT LONG-TERM POTENTIATION (LTP) INDUCTION AND THERAPEUTIC USES THEREOF” (The Regents of the University of Colorado, A Body Corporate, priority 2023, published 2026)

Key:
[1] = molecular target: CaMKI(h) (Homo sapiens, UniProt Q14012); test: Kinase panel, residual kinase activity at 1 μM inhibitor; assay type: biochemical
Method: (§1) In this table, residual kinase activity in the presence of 1 μM of each inhibitor is illustrated as a percentage of maximal activity.

[2] = molecular target: FGFR1(h) (Homo sapiens, UniProt P11362); test: as above; assay type: biochemical
FGFR1(h), sequence (P11362 22-822): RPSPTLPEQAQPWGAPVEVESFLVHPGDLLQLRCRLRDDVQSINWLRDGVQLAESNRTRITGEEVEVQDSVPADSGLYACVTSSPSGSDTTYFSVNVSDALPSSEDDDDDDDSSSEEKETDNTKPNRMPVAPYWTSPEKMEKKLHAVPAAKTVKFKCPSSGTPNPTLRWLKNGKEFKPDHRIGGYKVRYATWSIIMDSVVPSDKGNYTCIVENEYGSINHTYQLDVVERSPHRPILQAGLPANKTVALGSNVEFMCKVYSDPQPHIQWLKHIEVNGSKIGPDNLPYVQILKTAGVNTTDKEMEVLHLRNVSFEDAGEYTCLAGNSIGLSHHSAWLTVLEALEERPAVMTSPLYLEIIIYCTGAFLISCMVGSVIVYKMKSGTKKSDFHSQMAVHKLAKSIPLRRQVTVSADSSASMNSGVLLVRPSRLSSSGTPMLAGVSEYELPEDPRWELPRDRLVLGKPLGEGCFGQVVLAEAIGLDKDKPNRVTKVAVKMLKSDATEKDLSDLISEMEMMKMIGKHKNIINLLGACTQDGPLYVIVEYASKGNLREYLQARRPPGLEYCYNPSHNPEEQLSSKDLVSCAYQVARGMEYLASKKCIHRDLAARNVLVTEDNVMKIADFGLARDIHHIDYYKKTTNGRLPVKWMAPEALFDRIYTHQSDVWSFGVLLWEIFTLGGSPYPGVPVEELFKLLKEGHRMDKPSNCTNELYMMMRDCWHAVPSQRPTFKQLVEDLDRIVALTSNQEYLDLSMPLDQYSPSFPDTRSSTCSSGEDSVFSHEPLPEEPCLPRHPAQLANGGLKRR
Method: as §1

[3] = molecular target: JAK2(h) (Homo sapiens, UniProt O60674); test: as above; assay type: biochemical
Method: as §1

[4] = molecular target: JNK2α2(h) (Homo sapiens, UniProt P45984); test: as above; assay type: biochemical
JNK2α2(h), sequence (P45984 whole entry): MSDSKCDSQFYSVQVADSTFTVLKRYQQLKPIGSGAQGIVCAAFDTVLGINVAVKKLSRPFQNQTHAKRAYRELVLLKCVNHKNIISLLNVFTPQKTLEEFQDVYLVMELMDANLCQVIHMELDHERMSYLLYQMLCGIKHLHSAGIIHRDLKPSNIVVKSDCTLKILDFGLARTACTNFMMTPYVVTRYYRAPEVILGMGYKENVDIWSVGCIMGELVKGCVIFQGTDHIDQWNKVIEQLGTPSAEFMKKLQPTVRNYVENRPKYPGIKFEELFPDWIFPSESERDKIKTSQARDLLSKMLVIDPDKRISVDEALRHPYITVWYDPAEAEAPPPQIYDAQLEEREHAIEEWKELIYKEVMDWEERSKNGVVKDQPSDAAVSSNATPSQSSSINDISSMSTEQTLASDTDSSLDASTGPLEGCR
Method: as §1

[5] = molecular target: KDR(h) (Homo sapiens, UniProt P35968); test: as above; assay type: biochemical
KDR(h), sequence (P35968 20-1356): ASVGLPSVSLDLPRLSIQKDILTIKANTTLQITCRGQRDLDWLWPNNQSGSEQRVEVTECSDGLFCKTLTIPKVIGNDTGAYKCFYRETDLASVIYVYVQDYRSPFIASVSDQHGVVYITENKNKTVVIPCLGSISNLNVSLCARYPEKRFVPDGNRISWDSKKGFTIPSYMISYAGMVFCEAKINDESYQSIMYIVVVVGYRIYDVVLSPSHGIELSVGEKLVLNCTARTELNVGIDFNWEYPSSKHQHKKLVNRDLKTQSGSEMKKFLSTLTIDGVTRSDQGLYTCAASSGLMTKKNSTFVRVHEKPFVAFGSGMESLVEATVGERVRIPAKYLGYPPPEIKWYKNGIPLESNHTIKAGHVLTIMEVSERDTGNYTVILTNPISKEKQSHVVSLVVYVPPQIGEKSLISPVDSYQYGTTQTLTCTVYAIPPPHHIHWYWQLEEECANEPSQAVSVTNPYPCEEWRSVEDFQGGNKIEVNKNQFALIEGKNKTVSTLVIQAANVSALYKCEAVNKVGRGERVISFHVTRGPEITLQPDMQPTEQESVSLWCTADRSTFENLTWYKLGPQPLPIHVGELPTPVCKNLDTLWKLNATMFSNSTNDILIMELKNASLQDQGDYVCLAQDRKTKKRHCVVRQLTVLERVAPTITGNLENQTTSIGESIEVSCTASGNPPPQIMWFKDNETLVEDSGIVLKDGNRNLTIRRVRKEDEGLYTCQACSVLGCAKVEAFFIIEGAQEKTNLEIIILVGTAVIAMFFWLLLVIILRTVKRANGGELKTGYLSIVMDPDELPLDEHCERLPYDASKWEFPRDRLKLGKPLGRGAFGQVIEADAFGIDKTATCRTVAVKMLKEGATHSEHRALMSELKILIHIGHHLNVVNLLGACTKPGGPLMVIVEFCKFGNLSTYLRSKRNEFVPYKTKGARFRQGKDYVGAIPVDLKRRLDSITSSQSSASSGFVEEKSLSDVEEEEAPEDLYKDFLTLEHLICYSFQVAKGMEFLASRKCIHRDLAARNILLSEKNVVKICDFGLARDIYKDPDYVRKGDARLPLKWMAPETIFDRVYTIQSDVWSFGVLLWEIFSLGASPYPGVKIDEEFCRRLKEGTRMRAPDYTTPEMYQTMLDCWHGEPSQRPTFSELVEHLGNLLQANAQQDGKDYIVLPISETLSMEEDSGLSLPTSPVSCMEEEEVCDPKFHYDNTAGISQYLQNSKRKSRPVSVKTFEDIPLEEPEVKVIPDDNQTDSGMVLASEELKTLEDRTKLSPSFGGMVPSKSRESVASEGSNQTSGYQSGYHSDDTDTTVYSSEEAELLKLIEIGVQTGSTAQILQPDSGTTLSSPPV
Method: as §1

[6] = molecular target: MEK1(h) (Homo sapiens, UniProt Q02750); test: as above; assay type: biochemical
Method: as §1

[7] = molecular target: PAK2(h) (Homo sapiens, UniProt Q13177); test: as above; assay type: biochemical
Method: as §1

[8] = molecular target: PKCα(h) (Homo sapiens, UniProt P17252); test: as above; assay type: biochemical
Method: as §1

[9] = molecular target: PKCδ(h) (Homo sapiens, UniProt Q05655); test: as above; assay type: biochemical
Method: as §1

[10] = molecular target: PKG1α(h) (Homo sapiens, UniProt Q13976); test: as above; assay type: biochemical
PKG1α(h), sequence (Q13976 whole entry): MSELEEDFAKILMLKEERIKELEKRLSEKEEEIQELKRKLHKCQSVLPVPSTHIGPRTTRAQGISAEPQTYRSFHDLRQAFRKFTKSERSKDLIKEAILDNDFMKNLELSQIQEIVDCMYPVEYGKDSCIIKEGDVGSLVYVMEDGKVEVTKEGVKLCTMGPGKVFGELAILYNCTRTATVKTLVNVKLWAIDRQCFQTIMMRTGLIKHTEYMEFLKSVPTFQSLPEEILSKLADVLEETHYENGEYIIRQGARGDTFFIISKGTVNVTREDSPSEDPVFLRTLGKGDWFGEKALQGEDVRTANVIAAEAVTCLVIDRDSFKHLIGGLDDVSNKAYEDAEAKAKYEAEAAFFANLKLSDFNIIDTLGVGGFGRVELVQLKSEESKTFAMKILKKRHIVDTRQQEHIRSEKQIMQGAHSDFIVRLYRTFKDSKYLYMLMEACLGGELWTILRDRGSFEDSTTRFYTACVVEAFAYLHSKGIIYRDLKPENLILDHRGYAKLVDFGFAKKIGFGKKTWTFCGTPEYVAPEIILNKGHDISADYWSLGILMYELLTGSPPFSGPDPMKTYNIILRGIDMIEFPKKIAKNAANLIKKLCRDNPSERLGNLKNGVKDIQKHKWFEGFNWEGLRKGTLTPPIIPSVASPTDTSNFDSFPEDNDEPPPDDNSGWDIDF
Method: as §1

[11] = molecular target: Pim-1(h) (Homo sapiens, UniProt P11309); test: as above; assay type: biochemical
Pim-1(h), sequence (P11309 whole entry): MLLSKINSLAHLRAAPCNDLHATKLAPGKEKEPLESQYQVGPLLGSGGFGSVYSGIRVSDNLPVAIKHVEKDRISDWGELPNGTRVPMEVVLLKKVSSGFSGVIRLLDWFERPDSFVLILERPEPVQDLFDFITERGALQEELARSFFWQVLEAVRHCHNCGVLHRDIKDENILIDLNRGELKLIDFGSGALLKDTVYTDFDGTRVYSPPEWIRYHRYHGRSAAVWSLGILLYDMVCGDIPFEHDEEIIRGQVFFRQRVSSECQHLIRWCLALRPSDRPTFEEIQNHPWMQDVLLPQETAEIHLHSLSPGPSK
Method: as §1

[12] = molecular target: Pim-3(h) (Homo sapiens, UniProt Q86V86); test: as above; assay type: biochemical
Method: as §1

[13] = molecular target: SAPK2a(h) (Homo sapiens, UniProt Q16539); test: as above; assay type: biochemical
SAPK2a(h), sequence (Q16539 whole entry): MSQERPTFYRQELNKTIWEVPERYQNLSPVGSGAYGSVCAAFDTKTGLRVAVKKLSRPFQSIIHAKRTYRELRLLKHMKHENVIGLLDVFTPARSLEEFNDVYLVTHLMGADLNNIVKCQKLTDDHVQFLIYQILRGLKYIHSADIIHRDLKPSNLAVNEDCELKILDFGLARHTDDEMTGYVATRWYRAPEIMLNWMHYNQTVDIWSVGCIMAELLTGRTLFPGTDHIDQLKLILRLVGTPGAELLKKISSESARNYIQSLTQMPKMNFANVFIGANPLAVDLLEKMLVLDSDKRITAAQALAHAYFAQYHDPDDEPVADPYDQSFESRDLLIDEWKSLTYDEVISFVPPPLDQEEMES
Method: as §1

[14] = molecular target: SGK(h) (Homo sapiens, UniProt O00141); test: as above; assay type: biochemical
Method: as §1

[15] = molecular target: mTOR(h) (Homo sapiens, UniProt P42345); test: as above; assay type: biochemical
Method: as §1

[16] = test system: LTP at the hippocampal CA3 to CA1 synapse; test: LTP induction by HFS, field recordings in acute hippocampal slices of wildtype mice; assay type: cell-based, mouse; conditions: tatCN21 5 μM; AS283 10 or 30 μM; 15 minutes before, washed out 5 minutes after LTP induction
Method: Long term potentiation (LTP) is induced by high frequency stimulation (HFS; 2×100 Hz. 10 sec interval, see Materials and Methods) of CA3-CA1 Schaffer collateral pathways in WT mice and is observed by an increase in slope of field excitatory post synaptic potentials (fEPSPs) that persists after the stimulus is removed. When testing the effect of certain agents on LTP induction (i.e., AS283 or tatCN21), slices were incubated with the agents for 15 minutes before LTP induction and washed out 5 minutes after LTP induction.
Hippocampal slice preparation. WT and mutant mouse hippocampal slices were prepared using P56-70 mice. Isoflurane anesthetized mice were rapidly decapitated, and the brain was dissected in ice-cold high sucrose solution containing 220 mM sucrose, 12 mM MgSO4, 10 mM glucose, 0.2 mM CaCl2), 0.5 mM KCl, 0.65 mM NaH2PO4, 13 mM
NaHCO3, and 1.8 mM ascorbate. […]
Extracellular field recordings. […] Data were analyzed using WinLTP software with slope calculated as the initial rise from 10 to 60% of response peak. […] Responses were recorded for 60 min after HFS. Change in slope was calculated as a ratio of the average slope of the 20 min baseline (before HFS). Bar graphs of % fEPSP slope were calculated by averaging the 50-60-minute timepoints post HFS and normalized to baseline.

[17] = test system: CaMKII movement to excitatory synapses; test: cLTP-induced CaMKII movement to excitatory synapses in the presence of soluble oligomeric Aβ; assay type: cell-based; conditions: 0.5 μM Aβ, inhibitor 10 μM, 45 minutes prior to cLTP
[18] = molecular target: CaMKII F89G binding to GluN2B (Homo sapiens, UniProt Q9UQM7, F89G); test: In vitro binding of CaMKII F89G to GluN2B; conditions: NM-PP1
Excerpt: This conclusion also predicts that the LTP stimulus-induced movement of CaMKII to excitatory synapses should be (i) impaired in the CaMKII F89G mutant; but (ii) normalized by pharmacogenetic rescue with NM-PP1. Indeed, both predictions were observed experimentally (FIGS. 4D-4E).
CaMKII binding to GluN2B in vitro. CaMKII/GluN2B binding assays were done as described. Briefly, GST-GluN2B-c-tail (GST-2BC) was immobilized on anti-GST-antibody-coated microtiter plates (Thermo Scientific), blocked for 30 min with 5% BSA, and then overlaid with […] CaMKII (subunit concentration) in PIPES-buffered saline (pH 7.2) containing: 2 mM Ca^2+, 1 μM CaM, 1 mM Mg^2+, 0.1% BSA, 0.1% Tween-20 for 20 min at room temperature. Addition of 1 mM ADP, 1 mM ATP, 10 μM AS283 (or AS105) or […] NM-PP1 was added accordingly (see figure legends). After extensive washes in buffer containing 1 mM EGTA, GST-2BC and bound CaMKII was eluted for 10 min in SDS-loading buffer at 95° C. Bound CaMKII was measured via immunoblot.

SMILES | residual kinase activity, CaMKI(h) [1] | residual kinase activity, FGFR1(h) [2] | residual kinase activity, JAK2(h) [3] | residual kinase activity, JNK2α2(h) [4] | residual kinase activity, KDR(h) [5] | residual kinase activity, MEK1(h) [6] | residual kinase activity, PAK2(h) [7] | residual kinase activity, PKCα(h) [8] | residual kinase activity, PKCδ(h) [9] | residual kinase activity, PKG1α(h) [10] | residual kinase activity, Pim-1(h) [11] | residual kinase activity, Pim-3(h) [12] | residual kinase activity, SAPK2a(h) [13] | residual kinase activity, SGK(h) [14] | residual kinase activity, mTOR(h) [15] | LTP induction in wildtype mouse slices [16] | rescue of Aβ-blocked cLTP-induced movement of CaMKII to the synapses [17] | binding of CaMKII F89G to GluN2B in vitro [18]
NCCNc1cccc(-c2ccnc3[nH]c4ccccc4c23)c1 [AS283] | 107 percentage of maximal activity | 58 percentage of maximal activity | 121 percentage of maximal activity | 82 percentage of maximal activity | 15 percentage of maximal activity | 85 percentage of maximal activity | 76 percentage of maximal activity | 49 percentage of maximal activity | 39 percentage of maximal activity | 48 percentage of maximal activity | 50 percentage of maximal activity | 97 percentage of maximal activity | 95 percentage of maximal activity | 86 percentage of maximal activity | 115 percentage of maximal activity | failed to block LTP induction | rescued | 
CC(C)(C)n1nc(Cc2cccc3ccccc23)c2c(N)ncnc21 [NM-PP1] |  |  |  |  |  |  |  |  |  |  |  |  |  |  |  |  |  | enabled binding of CaMKII F89G to GluN2B also in vitro
